PubChem BioAssay (NCI)
Several values for one entry are separate records, joined by “and”; a condition that tells them apart may be missing. Equal values may be shown once.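 Cultured in 96-well plates, cells were exposed to test compound for 48 hours across five concentrations. Here, GI50 denotes the concentration required for 50% inhibition of growth. TGI: total growth inhibition.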

Columns and labels:
MDA-MB-231 breast = assay: inhibition of tumour cell growth, NCI panel, 48 h
T-47D breast = assay: inhibition of tumour cell growth, NCI panel, 48 h

CCOC(=O)C#Cc1c(CC(=O)OCC)nnn1[C@H]1O[C@@H](CO)[C@@H]2OC(C)(C)O[C@@H]21
GI50 (MDA-MB-231 breast): 4.62 µM
TGI (MDA-MB-231 breast): 16.1 µM
GI50 (T-47D breast): 2.78 µM
TGI (T-47D breast): 7.55 µM

N#Cc1nc2cc(F)c(F)cc2nc1-c1ccc(Cl)cc1
TGI (MDA-MB-231 breast): 5.3 µM
GI50 (T-47D breast): 20.9 µM
TGI (T-47D breast): > 62.1 µM

Cc1ccc(S(=O)(=O)Nc2nc3ccccc3nc2Nc2ccc3nsnc3c2)cc1
GI50 (MDA-MB-231 breast): 6.58 µM and 7.37 µM
TGI (MDA-MB-231 breast): 26.6 µM and > 100 µM
GI50 (T-47D breast): 3.34 µM and 3.47 µM
TGI (T-47D breast): > 100 µM

COc1ccc2nc(C)cc(Nc3ccccc3O)c2c1
GI50 (MDA-MB-231 breast): 27.9 µM
TGI (MDA-MB-231 breast): > 100 µM
GI50 (T-47D breast): 32.8 µM
TGI (T-47D breast): 96.8 µM

C=C1C(=O)O[C@H]2[C@H]1CC/C(CNS(=O)(=O)c1cccc3ccccc13)=C\CC[C@@]1(C)O[C@@H]21
GI50 (MDA-MB-231 breast): 1.53 µM
TGI (MDA-MB-231 breast): 3.4 µM
GI50 (T-47D breast): 1.96 µM
TGI (T-47D breast): 6.51 µM

CCCN(CCC)C(=O)[C@H](CC)[C@@H]1CC[C@@H](C)[C@@H]([C@H](C)[C@@H](O)[C@@H](C)C(=O)[C@H](CC)C2O[C@]3(C=C[C@@H](O)[C@]4(CC[C@@](C)([C@H]5CC[C@](O)(CC)[C@H](C)O5)O4)O3)[C@H](C)C[C@@H]2C)O1 (some centres not stated)
GI50 (MDA-MB-231 breast): 1.62 µM
TGI (MDA-MB-231 breast): 3.28 µM
GI50 (T-47D breast): 3.08 µM
TGI (T-47D breast): 14.5 µM

COc1ccc(/C=C/C(=O)c2cc3c(N)c(C(=O)Nc4ccccc4)sc3nc2C)cc1
GI50 (MDA-MB-231 breast): 0.377 µM
TGI (MDA-MB-231 breast): > 31.8 µM
GI50 (T-47D breast): 0.33 µM
TGI (T-47D breast): > 50 µM

O=C1/C(=C/c2ccc(Cl)cc2)COc2ccc(O)c(O)c21
GI50 (MDA-MB-231 breast): 1.11 µM
TGI (MDA-MB-231 breast): 3.25 µM
GI50 (T-47D breast): 1.2 µM
TGI (T-47D breast): 2.98 µM

Cc1nn(-c2nc3ccccc3[nH]2)c2c1C(c1ccc3c(c1)OCO3)CC(=O)N2 (configuration not stated)
GI50 (MDA-MB-231 breast): 2.18 µM
TGI (MDA-MB-231 breast): 5.22 µM
GI50 (T-47D breast): 3.61 µM
TGI (T-47D breast): > 39.6 µM

Oc1c(N=Nc2ccccc2)c2ccccc2c2ccc3ccccc3c12
TGI (MDA-MB-231 breast): > 100 µM
TGI (T-47D breast): > 100 µM

C=CC(=O)Nc1cccc(C)c1Nc1ncc2cc(-c3c(Cl)c(OC)cc(OC)c3Cl)ccc2n1
GI50 (MDA-MB-231 breast): 4.02 µM
TGI (MDA-MB-231 breast): 46.4 µM
GI50 (T-47D breast): 1.64 µM
TGI (T-47D breast): > 100 µM

CC1=C(C(=O)Nc2ccc(F)c(Cl)c2)C(c2cccc(Oc3ccccc3)c2)NC(=O)N1 (configuration not stated)
GI50 (MDA-MB-231 breast): 16 µM
TGI (MDA-MB-231 breast): 30.3 µM
GI50 (T-47D breast): 15.7 µM
TGI (T-47D breast): 34.6 µM

OC(CNc1ccnc2cc(Cl)ccc12)CNC1CCCCC1 (configuration not stated)
GI50 (MDA-MB-231 breast): 4.21 µM
TGI (MDA-MB-231 breast): 18.7 µM
GI50 (T-47D breast): 4.54 µM
TGI (T-47D breast): 18.7 µM

OC(CNC1CCCC1)Cn1c2ccccc2c2ccccc21 (configuration not stated)
GI50 (MDA-MB-231 breast): 27.7 µM
TGI (MDA-MB-231 breast): > 100 µM
GI50 (T-47D breast): 33.9 µM
TGI (T-47D breast): > 100 µM

N#CC1=C(N)Oc2c(sc3c(F)cccc23)C1c1ccc(F)cc1 (configuration not stated)
GI50 (MDA-MB-231 breast): 1.44 µM
TGI (MDA-MB-231 breast): 11.5 µM
GI50 (T-47D breast): 0.61 µM
TGI (T-47D breast): 26.9 µM

COc1cc([N+](=O)[O-])c(OC)cc1-c1nc2sc(Cl)cn2c1/C=N/NC(=N)N/N=C/c1c(-c2cc(OC)c([N+](=O)[O-])cc2OC)nc2sc(Cl)cn12
GI50 (MDA-MB-231 breast): 1.59 µM
TGI (MDA-MB-231 breast): 3.4 µM
GI50 (T-47D breast): 1.98 µM
TGI (T-47D breast): 5.07 µM

C=C1CC[C@@H]2[C@](C)(COC(C)=O)[C@H](OC(C)=O)CC[C@@]2(C)[C@@H]1C/C=C1/C(=O)OC[C@H]1OC(C)=O
GI50 (MDA-MB-231 breast): 12.5 µM
TGI (MDA-MB-231 breast): 27.1 µM
GI50 (T-47D breast): 2.86 µM
TGI (T-47D breast): 13.8 µM

CN(C)c1ccc(O)c2c1C[C@H]1C[C@H]3[C@H](N(C)C)C(=O)C(C(N)=O)=C(O)[C@@]3(O)C(=O)C1=C2O
GI50 (MDA-MB-231 breast): 10.5 µM
TGI (MDA-MB-231 breast): 43.6 µM
GI50 (T-47D breast): 5.29 µM
TGI (T-47D breast): > 100 µM

CN1CCn2c(c(Sc3ccc(C(=O)NO)cc3)c3ccccc32)C1=O
GI50 (MDA-MB-231 breast): 2.13 µM
TGI (MDA-MB-231 breast): 5.09 µM
GI50 (T-47D breast): 1.53 µM
TGI (T-47D breast): 3.91 µM

COCCNC(=O)c1ccc(-c2nc3ccc4[nH]ncc4c3c3c2CCCC3)cc1
GI50 (MDA-MB-231 breast): 2.15 µM
TGI (MDA-MB-231 breast): 73 µM
GI50 (T-47D breast): 1.97 µM
TGI (T-47D breast): 16.3 µM

COc1cc(/C=C/C(=O)c2c(C)n([O-])c3ccc(Cl)cc3[n+]2=O)cc(OC)c1OC
GI50 (MDA-MB-231 breast): 14.7 µM
TGI (MDA-MB-231 breast): 96.6 µM
GI50 (T-47D breast): 40.5 µM
TGI (T-47D breast): > 100 µM

COC(=O)c1cc2oc(/C=C3\SC(=S)N(NC(C)=O)C3=O)cc2n1Cc1ccccc1
GI50 (MDA-MB-231 breast): 9.02 µM
TGI (MDA-MB-231 breast): 17.4 µM

O=C(/C=C/c1ccc(C(F)(F)F)cc1)c1ccc(Nc2nc(NCCO)nc(N3CCOCC3)n2)cc1
GI50 (MDA-MB-231 breast): 2.69 µM
TGI (MDA-MB-231 breast): 9.74 µM
GI50 (T-47D breast): 2.28 µM
TGI (T-47D breast): 7.77 µM

CCCCCN(CCCCC)CC(O)c1cc2c(c3ccccc13)CCCC2 (configuration not stated)
GI50 (MDA-MB-231 breast): 3.01 µM and 7.04 µM
TGI (MDA-MB-231 breast): 10.5 µM and 21.4 µM
GI50 (T-47D breast): 3.04 µM and 7.77 µM
TGI (T-47D breast): 14.2 µM and 25.7 µM

CSC1C(=O)c2ccccc2/C(=N/Nc2nc3ccccc3s2)C1C (configuration not stated)
GI50 (MDA-MB-231 breast): 7.79 µM
TGI (MDA-MB-231 breast): 15.8 µM
GI50 (T-47D breast): 8.65 µM
TGI (T-47D breast): > 50 µM

O=C(CCCCCCC(=O)Nc1ccc2c(c1)/C(=C/c1ccc[nH]1)C(=O)N2)NO
GI50 (MDA-MB-231 breast): 0.991 µM
TGI (MDA-MB-231 breast): 10 µM
